From patent publication US20220031697A1, “Dose and regimen for an hdm2-p53 interaction inhibitor in hematological tumors” (Novartis AG, priority 2017, published 2022)
Read-outs that look alike come from different tables or passages of the source.

Columns and labels:
[1] = tested on: human HSAX2655 (liposarcoma) PDX; test: TGI PK/PD modelling, PDX rat; format: in vivo
[2] = tested on: human SJSA-1 (osteosarcoma) xenograft; test: TGI PK/PD modelling, xenograft rat; format: in vivo; conditions: human SJSA-1 xenograft rat
Description: Line at 120 ng/mL=95% tumor regression from human SJSA-1 xenograft rat. […] Calculation of average dose level (mg/day):
(§1) To further support the 45 mg for HDM201, compartmental PK modeling was used to estimate the individual average concentration during cycle 1 for patients with hematological tumors treated at 45 mg on regimen 2C (FIG. 2). For all patients with measured PK, the estimated average drug concentrations during cycle 1 were above the most conservative average tumor stasis concentration of about 41 ng/mL per cycle determined from PKPD modeling of preclinical data (human SJSA-1 xenograft rat model).

[3] = tested on: advanced TP53 wild-type (WT) leukemias; format: in vivo, human
Clinical PK = format: in vivo, human
Description: Pharmacokinetic data have been evaluated throughout the course of the clinical study. […] Furthermore, an integrated analysis of all available HDM201 concentrations was conducted using a population approach. The PK of HDM201 was best described by a 1-compartment PK model with a delayed zero- and first-order absorption process, and a linear clearance. Body weight was identified as a statistically significant covariate on apparent central volume of distribution (Vc/F), in which Vc/F increased with increasing body weight.
as §1

[4] = Regimen 1A 250 mg, cut-off 15 Jan. 2018
[5] = Regimen 1A 250 mg, n=10, cut-off 15 Jan. 2018
[6] = Regimen 1B 120 mg, n=23, cut-off 15 Jan. 2018
[7] = Regimen 2C 45 mg, n=25, cut-off 15 Jan. 2018

## COc1ncc(-c2nc3c(n2C(C)C)[C@H](c2ccc(Cl)cc2)N(c2cc(Cl)cn(C)c2=O)C3=O)c(OC)n1 [HDM201, (S)-5-(5-Chloro-1-methyl-2-oxo-1,2-dihydro-pyridin-3-yl)-6-(4-chloro-phenyl)-2-(2,4-dimethoxy-pyrimidin-5-yl)-1-isopropyl-5,6-dihydro-1H-pyrrolo[3,4-d]imidazol-4-one]
[1]
  Average concentration for tumor stasis: 19 ng/mL
[2]
  Concentration for 95% tumor regression: 120 ng/mL
[3]; CR patient, 1A 250 mg
  Count recovery time from C1D1: 48 days
  Duration of CR/CRi: 50 days
  Time to CR/CRi: 7 weeks
[3]; CR patient, 1A 400 mg
  Count recovery time from C1D1: 40 days
  Duration of CR/CRi: 23 days
  Time to CR/CRi: 6 weeks
[3]; CR patient, 2C 45 mg
  Count recovery time from C1D1: 32 days
  Duration of CR/CRi: 152 days
  Time to CR/CRi: 5 weeks
[3]; CRi patient, 1B 150 mg
  Duration of CR/CRi: 51 days
  Time to CR/CRi: 11 weeks
[3]; [4]
  Duration of CR/CRi: 50 to 125 days
  Time to CR/CRi: 24 to 50 days
[3]; [5]
  CR (patients): 1
  CRi (patients): 1
[3]; Regimen 1A (n = 15)
  BOR: CR: 2 (13) n (%)
  BOR: CRi: 0 (0) n (%)
  ORR (CR + CRi + PR): 2 (13) n (%)
[3]; Regimen 1B 120 mg, DoR censored, cut-off 15 Jan. 2018
  Duration of CR/CRi: 1 day (DoR
[3]; Regimen 1B 120 mg, cut-off 15 Jan. 2018
  Time to CR/CRi: 30 days
[3]; [6]
  CR (patients): 1
  CRi (patients): 0
[3]; Regimen 1B (n = 6)
  BOR: CR: 0 (0) n (%)
  BOR: CRi: 1 (17) n (%)
  ORR (CR + CRi + PR): 1 (17) n (%)
[3]; Regimen 2A (2 weeks on/2 week off), doses up to 30 mg
  Clinical activity: without evidence of clinically meaningful activity
[3]; Regimen 2A (n = 7)
  BOR: CR: 0 (0) n (%)
  BOR: CRi: 0 (0) n (%)
  ORR (CR + CRi + PR): 0 (0) n (%)
[3]; Regimen 2C 45 mg
  Count recovery time of the patient with CR: 32 days
[3]; Regimen 2C 45 mg, 7 patients with post-baseline assessment
  Overall response rate: 57.1%
[3]; Regimen 2C 45 mg, cut-off 15 Jan. 2018
  Time to CR/CRi: 34 to 49 days
[3]; [7]
  CR (patients): 2
  CRi (patients): 4
[3]; Regimen 2C 45 mg, one of three CRi patients
  Duration of CRi: 40 days
[3]; Regimen 2C 45 mg, one patient
  Duration of complete response: 152 days
[3]; Regimen 2C (n = 7)
  BOR: CR: 1 (14) n (%)
  BOR: CRi: 3 (43) n (%)
  ORR (CR + CRi + PR): 4 (57) n (%)
[3]; Regimen 2C, AML patients, FIG. 1
  Best percentage change in blast percentage in bone marrow (BM) aspirate: strong efficacy
[3]; Total (N = 35)
  BOR: CR: 3 (9) n (%)
  BOR: CRi: 4 (11) n (%)
  ORR (CR + CRi + PR): 7 (20) n (%)
Clinical PK; 45 mg regimen 2C, all patients with measured PK, compartmental PK modeling
  Estimated average drug concentration during cycle 1: > 41 ng/mL
Clinical PK; over the dose range studied, preliminary assessment
  Dose proportionality of PK (AUClast and Cmax): approximately dose proportional
